{
  "source": "patent US20220251096A1",
  "about": "“7,8-DIHYDRO-4H-PYRAZOLO[4,3-c]AZEPINE-6-ONE COMPOUNDS” (Eli Lilly and Company, priority 2019, published 2022)",
  "key": {"[1]": {"system": "22Rv1 prostate cancer cells", "assay": "Cell proliferation assay in 22Rv1", "assay_type": "cell-based", "details": "22Rv1, 7 days", "method": "The purpose of the following cell proliferation assay is to detect whether the compound of Example 2 and combinations thereof have an effect on cell proliferation.\n22Rv1 (purchased from ATCC CRL-2505) cells are seeded at a density of 1,000 cells per well in RMPI 10% FBS (20 μL volume) into a clear bottom 384-well cell culture plate. The plate is incubated at 37° C. and 5% CO2. The cells are dosed the following day with the compound of Example 2 and the compound of Example 2 in combination with the known anti-cancer therapeutics found in the table below. An Echo 555 acoustic dispenser is used to prepare serial dilutions (1:3) of the compound of Example 2, and combinations thereof, in concentrations ranging from 60 μM to 0.003 μM. The cells are then dosed by addition of 5 μL from the serial dilution plate to the cell plate, producing a final DMSO concentration of 0.2% with a final concentration dose ranging from 20 μM to 0.001 μM for the compound of Example 2 and combinations thereof.\nMedia containing 0.2% DMSO is used for the maximum point and 2 μM staurosporine in the growth media containing 0.2% DMSO is used for the minimum point. After dosing with the compound of Example 2 and combinations thereof, the cell plates are incubated at 37° C. and 5% CO2. Seven days after test compound addition, plates are removed from the incubator and cold EtOH (96%, 65 μL) is added to each well. After 30 minutes, the media is removed and RNase (20 μL, 50 μg/mL) (Sigma) and a 1:1000 propidium iodide dilution in PBS are added to each well. The plates are sealed and incubated for 1 hour at room temperature and preserved from light. Plates are then scanned with ACUMEN EXPLORER™ [Laser-scanning fluorescence microplate cytometer manufactured by TTP LABTECH LTD]. The number of 22Rv1 cells is evaluated through an estimated number of cells, calculated through the area parameter (ratio of total area of the total cells population), a designated range of peak intensity of FL-3 (PI), and the mean area of the single cell population defined by perimeter. Data is then processed through an NGR screening tool. Data is analyzed using a 4-parameter nonlinear logistic equation (four-parameter logistic concentration-response curve): Y=bot+[(top−bot)/1+(x/IC50)slope] where Y=% inhibition, X=concentration yielding y % inhibition, “bot”=minimum value of y attained by curve, “top”=maximum value of y attained by curve, and “slope”=steepness of curve at IC50. % Inh=[(median Max−x/median Max−median Min)]·100."}, "EOL-1": {"system": "EOL-1", "assay": "Cell growth inhibition assay, EOL-1", "assay_type": "cell-based", "details": "Homo sapiens, EOL1, 168 h; EOL-1, 7 days", "method": "(§1) Tumor cell lines are plated onto 96-well, black wall poly-D-lysine plates (Corning #354640), and incubated at 37° C., 5% CO2 for 18-24 hours. Compound was added at 1:3 dilutions in DMSO and cells were incubated at 37° C., 5% CO2 for 7 days. For adherent cell lines, cells were fixed and stained with propidium iodide and scanned on Acumen (channel 3 setting). For suspension cell lines, cell growth was monitored using Cell Titer-Glo reagent."}, "Kasumi (AML1-ETO)": {"system": "Kasumi (AML1-ETO)", "assay": "Cell growth inhibition assay, Kasumi (AML1-ETO)", "assay_type": "cell-based", "details": "168 h, 7 days", "method": "as §1"}, "SKNO-1 (AML1-ETO)": {"system": "SKNO-1 (AML1-ETO)", "assay": "Cell growth inhibition assay, SKNO-1 (AML1-ETO)", "assay_type": "cell-based", "details": "168 h, 7 days", "method": "as §1"}, "KG-1": {"system": "KG-1", "assay": "Cell growth inhibition assay, KG-1", "assay_type": "cell-based", "details": "Homo sapiens, 168 h; KG-1, 7 days", "method": "as §1"}, "BRD4 (BD1)": {"target": "T1, BRD4 (BD1) (Homo sapiens, UniProt O60885)", "T1 construct": "BRD4 (Bromodomain 1 (BD1) and Bromodomain 2 (BD2)); purchased DiscoverX (BromoKdELECT service)", "assay": "BromoKdELECT platform assay, BRD4 (BD1)", "assay_type": "binding", "details": "11 points dose-response, mean from a duplicate experiment", "description": "(§2) The purpose of this assay is to evaluate the in vitro target engagement and selectivity (https://www.discoverx.com/services/drug-discovery-development-services/epigenetic-profiling/bromoscan-epigenetic-profiling/bromokdelect). Assay measurement is based on the amount of bromodomain captured in test and control samples by using quantitative PCR technology that detects the DNA label associated to bromodomain. Compounds that bind the bromodomain active site prevents its binding to the immobilized ligand and will reduce the amount of bromodomain captured on the solid support. […] Thus, compound activity is monitored by measuring the amount of bromodomain captured in test versus control samples by using qPCR. Binding affinity for test compound-bromodomain interactions are calculated by measuring the amount of bromodomain captured on the solid support as a function of the test compound concentration.\n(§3) Binding affinity (Kd) of the compounds of Examples 1 and 2 towards CREBBP, EP300 and BRD4 (Bromodomain 1 (BD1) and Bromodomain 2 (BD2)) are determined in an 11 points dose-response study (See Table 5). Data is represented as a mean from a duplicate experiment."}, "CREBBP": {"target": "CREBBP (Homo sapiens, UniProt Q92793)", "sequence (Q92793 1085-1192 limits assumed)": "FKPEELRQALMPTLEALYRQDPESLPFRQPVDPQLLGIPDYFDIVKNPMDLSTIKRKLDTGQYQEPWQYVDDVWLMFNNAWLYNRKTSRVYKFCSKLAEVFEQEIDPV", "assay": "BromoKdELECT platform assay, CREBBP", "assay_type": "binding", "set-up": "purchased DiscoverX (BromoKdELECT service)", "details": "11 points dose-response, mean from a duplicate experiment", "description": "as §2, §3"}},
  "note": "Several values for one entry are separate records, joined by “and”; a condition that tells them apart may be missing. Equal entries are not always repeated.",
  "data": [
    {"smiles": "CCNC(=O)c1ccc(-c2cc3cccc(-c4nn(C)c5c4CN(C)C(=O)CC5)c3cn2)cn1", "note": "[Example 2, 5-[8-(1,5-Dimethyl-6-oxo-7,8-dihydro-4H-pyrazolo[4,3-c]azepin-3-yl)-3-isoquinolyl]-N-ethyl-pyridine-2-carboxamide]", "values": [
      {"measurement": "Cell Proliferation % Inhibition", "setting": "[1]; single agent at 120 nM, 0.12 µM", "value": 9.62, "unit": "%"},
      {"measurement": "Cell Proliferation % Inhibition", "setting": "[1]; single agent at 370 nM, 0.37 µM", "value": "18.68% and 31.53%"},
      {"measurement": "inhibition at 0.12 µM", "setting": "[1]; Homo sapiens, 22Rv1, 168 h, single agent at 120 nM", "value": 17.4, "unit": "%"},
      {"measurement": "inhibition at 0.37 µM", "setting": "[1]; Homo sapiens, 22Rv1, 168 h, single agent at 370 nM", "value": 35.4, "unit": "%"},
      {"measurement": "inhibition at 0.74 µM", "setting": "[1]; Homo sapiens, 22Rv1, 168 h, single agent at 740 nM", "value": 12.2, "unit": "%"},
      {"measurement": "inhibition at 2.2 µM", "setting": "[1]; Homo sapiens, 22Rv1, 168 h, single agent at 2.2 μM", "value": 19.3, "unit": "%"},
      {"measurement": "inhibition at 3.3 µM", "setting": "[1]; Homo sapiens, 22Rv1, 168 h, single agent at 3.3 μM", "value": 46.3, "unit": "%"},
      {"measurement": "IC50", "setting": "EOL-1", "value": 1, "unit": "nM"},
      {"measurement": "IC50", "setting": "Kasumi (AML1-ETO)", "value": 8, "unit": "nM"},
      {"measurement": "IC50", "setting": "SKNO-1 (AML1-ETO)", "value": 18, "unit": "nM"},
      {"measurement": "IC50", "setting": "KG-1", "value": 83, "unit": "nM"},
      {"measurement": "Kd", "setting": "BRD4 (BD1)", "value": 2650, "unit": "nM"},
      {"measurement": "Kd", "setting": "CREBBP", "value": 0.325, "unit": "nM"}
    ]}
  ]
}
